Test results as given in ChEMBL document CHEMBL3997761 (Medchemcomm, 2016).
The source made the active and inactive calls. No cut-off for these calls is given here.

Tests used:
CCRF S-180 [1] = test: Antitumor activity against mouse S180 cells implanted in ICR mouse assessed as decrease in tumor weight at 2 umol/kg, ip administered daily for 10 days and measured 24 hrs post last dose; format: functional, organism-based
[2] = Induction of nanoparticle formation in ultrapure water assessed as nanoparticle size at 10 uM by transmission electron microscopic method
Mus musculus [3] = test: Antiinflammatory activity in ICR mouse assessed as inhibition of xylene-induced ear edema at 1 umol/kg, po pretreated for 30 mins followed by xylene administration measured after 2 hrs relative to control; format: functional, organism-based
[4] = Drug uptake in nucleus of human HeLa cells at 40 uM by fluorescence microscopy; format: ADME, cell-based; conditions: TDE = time-dependent effect
[5] = Induction of nanoparticle solid formation assessed as nanoparticle size at 10 uM by scanning electron microscopic method
[6] = Induction of nanoparticle formation in ultrapure water assessed as Farady-Tyndall effect at 1 uM under 650 nanometer laser beam irradiation
[7] = Induction of nanoparticle solid formation assessed as nanoparticle size at 1 uM by scanning electron microscopic method
[8] = Induction of nanoparticle formation in ultrapure water assessed as nanoparticle size at 1 uM by transmission electron microscopic method
Mus musculus [9] = test: Downregulation of P-selectin expression in ip dosed ICR mouse serum implanted with mouse S180 cells by ELISA; format: functional, organism-based
Plasma [10] = test: Induction of nanoparticle formation in rat plasma assessed as nanoparticle size at 0.1 uM by atomic force microscopy; format: cell-free
[11] = Induction of nanoparticle solid formation by scanning electron microscopic method
[12] = Drug uptake in nucleus of human HT-29 cells at 40 uM by fluorescence microscopy; format: ADME; conditions: TDE = time-dependent effect
CCRF S-180 [13] = test: Antitumor activity against mouse S180 cells implanted in ICR mouse assessed as decrease in tumor weight administered intraperitoneally daily for 10 days and measured after 24 hrs last dose; format: functional
[14] = Drug uptake in nucleus of human SH-SY5Y cells at 40 uM by fluorescence microscopy; format: ADME; conditions: TDE = time-dependent effect
K562 [15] = test: Antiproliferative activity against human K562 cells after 48 hrs by MTT assay; format: functional, cell-based; conditions: K562, 48 h
[16] = Induction of nanoparticle formation in ultrapure water assessed as nanoparticle size at 0.1 uM by transmission electron microscopic method
K562 [17] = test: Induction of apoptosis in human K562 cells assessed as necrotic cells at 10 uM after 12 hrs by Annexin V-FITC/propidium iodide staining based flow cytometry (reference value: 0.6%); format: functional
Mus musculus [18] = test: Potency index, ratio of compound effect to aspirin effect for antiinflammatory activity in ICR mouse assessed as inhibition of xylene-induced ear edema; format: functional
K562 [19] = test: Induction of apoptosis in human K562 cells assessed as early apoptotic cells at 10 uM after 24 hrs by Annexin V-FITC/propidium iodide staining based flow cytometry (reference value: 3.2%); format: functional
Plasma [20] = test: Induction of nanoparticle formation in rat plasma by atomic force microscopy; format: cell-free
K562 [21] = test: Induction of apoptosis in human K562 cells assessed as live cells at 10 uM after 12 hrs by Annexin V-FITC/propidium iodide staining based flow cytometry (reference value: 91.6%); format: functional
SH-SY5Y = test: Antiproliferative activity against human SH-SY5Y cells after 48 hrs by MTT assay; format: functional, cell-based
[22] = Induction of nanoparticle formation in ultrapure water assessed as zeta potential at 1 uM under 650 nanometer laser beam irradiation
K562 [23] = test: Induction of apoptosis in human K562 cells assessed as late apoptotic cells at 10 uM after 12 hrs by Annexin V-FITC/propidium iodide staining based flow cytometry (reference value: 1.7%); format: functional
Bos taurus [24] = species: Bos taurus; test: Binding affinity to calf thymus DNA assessed as fluorescence quenching by measuring bathochromic shift by spectrofluorometric method
HeLa = test: Antiproliferative activity against human HeLa cells after 48 hrs by MTT assay; format: functional, cell-based
Mus musculus [25] = test: Antiinflammatory activity in xylene induced ICR mouse ear edema model assessed as decrease in serum TNFalpha level at 1 umol/kg, po pretreated for 30 mins followed by xylene administration measured after 2 hrs by ELISA; format: functional, organism-based
[26] = Induction of nanoparticle formation in ultrapure water assessed as nanoparticle size at 1 uM under 650 nanometer laser beam irradiation
K562 [27] = test: Induction of apoptosis in human K562 cells at 10 uM by Annexin V-FITC/propidium iodide staining based flow cytometry; format: functional, cell-based; conditions: TDE = time-dependent effect
[28] = Induction of nanoparticle solid formation assessed as nanoparticle size at 0.1 uM by scanning electron microscopic method
K562 [29] = test: Induction of apoptosis in human K562 cells assessed as late apoptotic cells at 10 uM after 24 hrs by Annexin V-FITC/propidium iodide staining based flow cytometry (reference value: 1.9%); format: functional
K562 [30] = test: Induction of apoptosis in human K562 cells assessed as early apoptotic cells at 10 uM after 12 hrs by Annexin V-FITC/propidium iodide staining based flow cytometry (reference value: 5.1%); format: functional
Mus musculus [31] = test: Antiinflammatory activity in xylene induced ICR mouse ear edema model assessed as decrease in serum IL2 level at 1 umol/kg, po pretreated for 30 mins followed by xylene administration measured after 2 hrs by ELISA; format: functional, organism-based
K562 [32] = test: Induction of apoptosis in human K562 cells assessed as necrotic cells at 10 uM after 24 hrs by Annexin V-FITC/propidium iodide staining based flow cytometry (reference value: 0.6%); format: functional
HT-29 = test: Antiproliferative activity against human HT-29 cells after 48 hrs by MTT assay; format: functional, cell-based; conditions: HT-29, 48 h
Mus musculus [33] = test: Downregulation of TNFalpha levels in ip dose ICR mouse serum implanted with mouse S180 cells by ELISA; format: functional, organism-based
A549 = test: Antiproliferative activity against human A549 cells after 48 hrs by MTT assay; format: functional, cell-based; conditions: A549, 48 h
CCRF S-180 [34] = test: Antitumor activity against mouse S180 cells implanted in ICR mouse assessed as decrease in tumor size at 0.01 to 1 umol/kg, ip administered daily for 10 days and measured 24 hrs post last dose; format: functional, organism-based
Plasma [35] = test: Induction of nanoparticle formation in rat plasma assessed as nanoparticle size at 10 uM by atomic force microscopy; format: cell-free
CCRF S-180 [36] = test: Potency index, ratio of compound effect to doxorubicin effect for antitumor activity against mouse S180 cells implanted in ICR mouse assessed as decrease in tumor weight; format: functional
[37] = Induction of nanoparticle formation in ultrapure water assessed as Farady-Tyndall effect at 1 uM
K562 [38] = test: Induction of apoptosis in human K562 cells assessed as live cells at 10 uM after 24 hrs by Annexin V-FITC/propidium iodide staining based flow cytometry (reference value: 94.3%); format: functional
[39] = Induction of nanoparticle formation in ultrapure water by transmission electron microscopic method
Plasma [40] = test: Induction of nanoparticle formation in rat plasma assessed as nanoparticle size at 1 uM by atomic force microscopy; format: cell-free
Bos taurus [41] = species: Bos taurus; test: Binding affinity to calf thymus DNA by UV spectrum analysis
Bos taurus [42] = species: Bos taurus; test: Binding affinity to calf thymus DNA by CD spectrum analysis
HCT-8 = test: Antiproliferative activity against human HCT8 cells after 48 hrs by MTT assay; format: functional, cell-based; conditions: HCT-8, 48 h
HL-60 = test: Antiproliferative activity against human HL60 cells after 48 hrs by MTT assay; format: functional, cell-based; conditions: HL-60, 48 h
Mus musculus [43] = test: Antiinflammatory activity in ICR mouse assessed as inhibition of xylene-induced ear edema at 16.7 umol/kg, po pretreated for 30 mins followed by xylene administration measured after 2 hrs relative to control; format: functional, organism-based

## COc1cccc2c1C(=O)c1c(O)c3c(c(O)c1C2=O)C[C@@](O)(C(=O)CO)C[C@@H]3O[C@H]1C[C@H](N)[C@H](O)[C@H](C)O1
CCRF S-180 [1]
  Activity: Active

## N=C(NCCC[C@H](NC(=O)c1cc2c(cn1)[nH]c1ccccc12)C(=O)OCc1ccccc1)N[N+](=O)[O-]
[2]
  Activity: 43.9 to 176 nm
Mus musculus [3]
  inhibition: Active
[4]
  Drug uptake: Tde
[5]
  Activity: 44.4 to 111 nm
[6]
  Activity: Active
[7]
  Activity: 33.3 to 100 nm
[8]
  Activity: 10.8 to 116 nm
Mus musculus [9]
  Activity: Dose-dependent effect
Plasma [10]
  Activity: 68.6 to 78.4 nm
[11]
  Activity: Dose-dependent effect
[12]
  Drug uptake: Tde
CCRF S-180 [13]
  Activity: Dose-dependent effect
  MED: 0.01 µmol/kg
[14]
  Drug uptake: Tde
K562 [15]
  IC50: 15.3 to 74.1 µM
[16]
  Activity: 8 to 72.7 nm
K562 [17]
  Activity: 3.5%
Mus musculus [18]
  Ratio: 16.7
K562 [19]
  Activity: 60.7%
Plasma [20]
  Activity: Dose-dependent effect
K562 [21]
  Activity: 73%
SH-SY5Y
  IC50: 15.3 to 74.1 µM
[22]
  Activity: -14.2 mV
K562 [23]
  Activity: 9%
Bos taurus [24]
  Activity: Dose-dependent effect
HeLa
  IC50: 15.3 to 74.1 µM
Mus musculus [25]
  Activity: Active
[26]
  Activity: 165 nm
K562 [27]
  Activity: Tde
[28]
  Activity: 28.6 to 88.9 nm
K562 [29]
  Activity: 12.4%
K562 [30]
  Activity: 14.5%
Mus musculus [31]
  Activity: Active
K562 [32]
  Activity: 1.4%
HT-29
  IC50: 15.3 to 74.1 µM
Mus musculus [33]
  Activity: Dose-dependent effect
A549
  IC50: 15.3 to 74.1 µM
CCRF S-180 [34]
  Activity: Active
Plasma [35]
  Activity: 102 to 109 nm
CCRF S-180 [36]
  Ratio: 2
[37]
  Activity: inactive
K562 [38]
  Activity: 25.5%
[39]
  Activity: Dose-dependent effect
Plasma [40]
  Activity: 78.5 to 98 nm
Bos taurus [41]
  Activity: Dose-dependent effect
Bos taurus [42]
  Activity: Dose-dependent effect
HCT-8
  IC50: 15.3 to 74.1 µM
HL-60
  IC50: 15.3 to 74.1 µM

## CC(=O)Oc1ccccc1C(=O)O
Mus musculus [43]
  inhibition: Active
